Experimental data: US10251885B2, “Azole antifungal compositions” (ALLERGAN PHARMACEUTICALS INTERNATIONAL LIMITED, priority 2009, dated 2019)
≈ marks a conversion by molar mass, not a printed value.

Columns and labels:
[1] = tested on: All Dermatophytes; experiment: Microdilution assay, minimum fungicidal concentration (MFC); format: cell-based; conditions: for MFC50 / MFC90 / MFC Range: All Dermatophytes, n = 15 strains
Experimental: (§1) Multiple strains of Trichophyton rubrum, Trichophyton mentagrophytes and Epidermophyton flucossum were obtained from the culture collection facility at the Center for Medical Mycology (University Hospitals of Cleveland/Case Western Reserve University, Cleveland, Ohio). The minimum inhibitory concentration (MICs) for albaconazole, ciclopirox and terbinafine against each dermatophyte strain was determined according to the method approved by the CLSI Antifungal Subcommittee as a reference method for determining dermatophyte susceptibilities (Ghannoum et al., J. Clin. Microbiol. 42: 2977-2979, 2004). […] Microbiol. Infect. Dis. 45:203-206, 2003.
(§2) Tables 1 and 2 describe the minimum inhibitory concentrations (in ug/mL) and the minimum fungicidal concentrations (in ug/mL), respectively, for the active agents against the dermatophyte strains.

[2] = tested on: E. flucossum; experiment: Microdilution assay, minimum inhibitory concentration (MIC); format: cell-based, Epidermophyton flucossum; conditions: n = 5 strains; for MIC50 / MIC90: Epidermophyton
Experimental: as §1, §2

[3] = tested on: All Dermatophytes; experiment: as above; format: cell-based; conditions: for MIC50 / MIC90 / MIC Range: All Dermatophytes, n = 15 strains
Experimental: as §1, §2

[4] = tested on: T. rubrum elevated terbinafine (MIC); experiment: Microdilution assay, minimum fungicidal concentration (MFC); format: cell-based, Trichophyton rubrum; conditions: n = 3 strains
Experimental: as §1, §2

[5] = tested on: T. rubrum; experiment: as above; format: cell-based, Trichophyton rubrum; conditions: n = 2 strains
Experimental: as §1, §2

[6] = tested on: E. flucossum; experiment: as above; format: cell-based, Epidermophyton flucossum; conditions: n = 5 strains
Experimental: as §1, §2

[7] = tested on: T. mentagrophytes; experiment: Microdilution assay, minimum inhibitory concentration (MIC); format: cell-based, Trichophyton mentagrophytes; conditions: n = 5 strains; for MIC50 / MIC90: Trichophyton mentagrophytes
Experimental: as §1, §2

[8] = tested on: T. mentagrophytes; experiment: Microdilution assay, minimum fungicidal concentration (MFC); format: cell-based, Trichophyton mentagrophytes; conditions: n = 5 strains
Experimental: as §1, §2

[9] = tested on: T. rubrum elevated terbinafine (MIC); experiment: Microdilution assay, minimum inhibitory concentration (MIC); format: cell-based, Trichophyton rubrum; conditions: for MIC Range / MIC50 / MIC90: T. rubrum elevated terbinafine (MIC), n = 3 strains; for MIC50 / MIC90: Trichophyton rubrum
Experimental: as §1, §2

[10] = tested on: T. rubrum; experiment: as above; format: cell-based, Trichophyton rubrum; conditions: n = 2 strains; for MIC50 / MIC90: Trichophyton rubrum
Experimental: as §1, §2

| MIC50 [2] | MIC90 [2] | MIC Range [2] | MIC50 [3] | MIC90 [3] | MIC50 [7] | MIC90 [7] | MIC Range [7] | MIC Range [9] | SMILES | MFC50 [1] | MFC90 [1] | MFC50 [4] | MFC90 [4] | MFC50 [5] | MFC90 [5] | MFC Range [5] | MFC50 [6] | MFC90 [6] | MFC50 [8] | MFC90 [8] | further results |
| --- | --- | --- | --- | --- | --- | --- | --- | --- | --- | --- | --- | --- | --- | --- | --- | --- | --- | --- | --- | --- | --- |
| 0.015 µg/mL (≈ 0.0347 µM) | 0.015 µg/mL (≈ 0.0347 µM) | 0.008 to 0.015 µg/mL | 0.06 µg/mL (≈ 0.139 µM) | 0.25 µg/mL (≈ 0.579 µM) | 0.12 µg/mL (≈ 0.278 µM) | 0.5 µg/mL (≈ 1.16 µM) | 0.12 to 0.5 µg/mL | 0.015 to 0.25 µg/mL | C[C@@H](n1cnc2cc(Cl)ccc2c1=O)[C@](O)(Cn1cncn1)c1ccc(F)cc1F [Albaconazole, (1R,2R)-7-chloro-3-[2-(2,4-difluorophenyl)-2-hydroxy-1-methyl-3-(1H-1,2,4-triazol-1yl)propyl]quinazolin-4(3H)-one] | 0.5 µg/mL (≈ 1.16 µM) | 8 µg/mL (≈ 18.5 µM) | 0.25 µg/mL (≈ 0.579 µM) | 1 µg/mL (≈ 2.32 µM) | 0.5 µg/mL (≈ 1.16 µM) | 8 µg/mL (≈ 18.5 µM) | 0.5 to 8 µg/mL | 0.25 µg/mL (≈ 0.579 µM) | 8 µg/mL (≈ 18.5 µM) | 1 µg/mL (≈ 2.32 µM) | 8 µg/mL (≈ 18.5 µM) | MFC Range [1]: 0.06 to 8 µg/mL; MFCs overall, compared with ciclopirox and terbinafine ([1]; overall, in words): lower than those for ciclopirox and similar to those for terbinafine; MIC Range [3]: 0.008 to 0.5 µg/mL; MICs overall, compared with ciclopirox and terbinafine ([3]; overall, in words): lower than those for ciclopirox and similar to those for terbinafine; MFC Range [4]: 0.06 to 1 µg/mL; MFC Range [6]: 0.06 to 8 µg/mL; MFC Range [8]: 0.5 to 8 µg/mL; MIC50 [9]: 0.06 µg/mL (≈ 0.139 µM); MIC90 [9]: 0.25 µg/mL (≈ 0.579 µM); effectiveness against terbinafine-resistant Trichophyton rubrum strains ([9]; compared with terbinafine, in words): more effective; MIC50 [10]: 0.06 µg/mL (≈ 0.139 µM); MIC90 [10]: 0.06 µg/mL (≈ 0.139 µM); MIC Range [10]: 0.06 µg/mL (≈ 0.139 µM) |
| 0.12 µg/mL (≈ 0.579 µM) | 0.12 µg/mL (≈ 0.579 µM) | 0.12 µg/mL (≈ 0.579 µM) | 0.12 µg/mL (≈ 0.579 µM) | 0.25 µg/mL (≈ 1.21 µM) | 0.25 µg/mL (≈ 1.21 µM) | 0.25 µg/mL (≈ 1.21 µM) | 0.12 to 0.25 µg/mL | 0.12 µg/mL (≈ 0.579 µM) | Cc1cc(C2CCCCC2)n(O)c(=O)c1 [Ciclopirox, ciclopirox] | 16 µg/mL (≈ 77.2 µM) | >32 µg/mL | 16 µg/mL (≈ 77.2 µM) | >32 µg/mL | 16 µg/mL (≈ 77.2 µM) | 32 µg/mL (≈ 154 µM) | 16 to 32 µg/mL | 4 µg/mL (≈ 19.3 µM) | >32 µg/mL | >32 µg/mL | >32 µg/mL | MIC50 [9]: 0.12 µg/mL (≈ 0.579 µM); MIC90 [9]: 0.12 µg/mL (≈ 0.579 µM); MIC50 [10]: 0.12 µg/mL (≈ 0.579 µM); MIC90 [10]: 0.12 µg/mL (≈ 0.579 µM); MIC Range [10]: 0.12 µg/mL (≈ 0.579 µM) |
| 0.002 µg/mL (≈ 0.00686 µM) | 0.008 µg/mL (≈ 0.0275 µM) | 0.002 to 0.008 µg/mL | 0.002 µg/mL (≈ 0.00686 µM) | 8 µg/mL (≈ 27.5 µM) | 0.002 µg/mL (≈ 0.00686 µM) | 0.004 µg/mL (≈ 0.0137 µM) | 0.002 to 0.004 µg/mL | 8 to 32 µg/mL | CN(C/C=C/C#CC(C)(C)C)Cc1cccc2ccccc12 [Terbinafine, terbinafine] | 0.015 µg/mL (≈ 0.0515 µM) | 32 µg/mL (≈ 110 µM) | 32 µg/mL (≈ 110 µM) | >64 µg/mL | 0.008 µg/mL (≈ 0.0275 µM) | 0.008 µg/mL (≈ 0.0275 µM) | 0.008 µg/mL (≈ 0.0275 µM) | 0.03 µg/mL (≈ 0.103 µM) | 0.03 µg/mL (≈ 0.103 µM) | 0.015 µg/mL (≈ 0.0515 µM) | 0.03 µg/mL (≈ 0.103 µM) | MFC Range [1]: 0.008 µg/mL (≈ 0.0275 µM); MIC Range [3]: 0.002 to 32 µg/mL; MFC Range [8]: 0.015 to 0.03 µg/mL; MIC50 [9]: 8 µg/mL (≈ 27.5 µM); MIC90 [9]: 32 µg/mL (≈ 110 µM); MIC50 [10]: 0.002 µg/mL (≈ 0.00686 µM); MIC90 [10]: 0.002 µg/mL (≈ 0.00686 µM); MIC Range [10]: 0.002 µg/mL (≈ 0.00686 µM) |
